The source of these data is patent US20210277020A1, “HETEROCYCLIC COMPOUNDS AS MONOACYLGLYCEROL LIPASE INHIBITORS” (Hoffmann-La Roche Inc., priority 2018, published 2021).

What is called pIC50 is the IC50 on a negative log10 scale, so that one unit is a factor of ten. A lower pIC50 goes with a high IC50.

The assay deals with T1, MAGL (Homo sapiens, UniProt Q99685).
T1 sequence (Q99685 1-303): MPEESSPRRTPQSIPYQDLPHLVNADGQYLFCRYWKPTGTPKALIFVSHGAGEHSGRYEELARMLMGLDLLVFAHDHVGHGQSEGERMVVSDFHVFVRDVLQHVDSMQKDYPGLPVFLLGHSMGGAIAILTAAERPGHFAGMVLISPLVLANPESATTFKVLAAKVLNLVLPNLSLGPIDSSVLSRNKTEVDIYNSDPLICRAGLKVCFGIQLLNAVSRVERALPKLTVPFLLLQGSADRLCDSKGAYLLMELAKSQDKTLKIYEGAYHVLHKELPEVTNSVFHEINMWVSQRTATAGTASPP
In words: 2-AG assay: MAGL inhibition followed by hydrolysis of 2-arachidonoylglycerol to arachidonic acid, mass spectrometry. The format is biochemical. Conditions: measured in 2-AG assay (footnote [a]); substrate 2-arachidonoylglycerol 8 μM, 30 min at RT. The source says: Alternatively, compounds were profiled for MAGL inhibitory activity by determining the enzymatic activity by following the hydrolysis of the natural substrate, 2-arachidonoylglycerol, resulting in arachidonic acid, which can be followed by mass spectrometry. This assay is hereinafter abbreviated “2-AG assay”.
Detection by mass spectrometry in the present 2-AG assay has the advantage over known optical assays that the natural enzyme substrate, 2-arachidonoylglycerol, can be used instead of structurally unrelated compounds needed for optical readouts (such as 4-NPA). It thereby delivers more relevant data for activity determination, reduces false positives and generally adds to data quality. In addition, this assay reduces the analysis time from about 10 minutes per sample with standard methods to under 10 seconds per sample. This allows for using the present 2-AG assay in a method for high throughput screening of compounds for their MAGL inhibitory activity.
The 2-AG assay was carried out in 384 well assay plates (PP, Greiner Cat #784201) in a total volume of 20 μL. Compound dilutions were made in 100% DMSO (VWR Chemicals 23500.297) in a polypropylene plate in 3-fold dilution steps to give a final concentration range in the assay from 12.5 μM to […]. 0.25 μL compound dilutions (100% DMSO) were added to 9 μL MAGL in assay buffer (50 mM TRIS (GIBCO, 15567-027), 1 mM EDTA (Fluka, 03690-100 mL), 0.01% (v/v) Tween. After shaking, the plate was incubated for 15 min at RT. To start the reaction, 10 μL 2-arachidonoylglycerol in assay buffer was added. The final concentrations in the assay was […] and 8 μM 2-arachidonoylglyerol. After shaking and 30 min incubation at RT, the reaction was quenched by the addition of 40 μL of acetonitrile containing 4 μM of d8-arachidonic acid. The amount of arachidonic acid was traced by an online SPE system (Agilent Rapidfire) coupled to a triple quadrupole mass spectrometer (Agilent 6460). A C18 SPE cartridge (G9205A) was used in an acetonitrile/water liquid setup. The mass spectrometer was operated in negative electrospray mode following the mass transitions 303.1→259.1 for arachidonic acid and 311.1→267.0 for d8-arachidonic acid. The activity of the compounds was calculated based on the ratio of intensities [arachidonic acid/d8-arachidonic acid].
In a preferred embodiment, the method for determining the MAGL inhibitory activity of a test compound according to the invention, comprises: • (i) providing a solution of a test compound; • (ii) adding the solution of step (i) to a solution of MAGL; • (iii) shaking the mixture obtained from step (ii); • (iv) incubating the mixture obtained from step (iii); • (v) adding a solution of 2-arachidonoylglycerol; • (vi) incubating the mixture obtained from step (v); • (vii) adding a solution of d8-arachidonic acid; and • (viii) determining the ratio of intensities arachidonic acid/d8-arachidonic acid using a mass spectrometer.

The structures appear in SMILES notation. pIC50: −log10 of the molar value.

Compound `O=C1CO[C@H]2CCN(C(=O)N3CC([S+]([O-])c4ccc(C(F)(F)F)cc4Cl)C3)C[C@H]2N1` (mixture of isomers) [Example 145, (4aR,8aS)-6-[3-[2-Chloro-4-(trifluoromethyl)phenyl]sulfinylazetidine-1-carbonyl]-4,4a,5,7,8,8a-hexahydropyrido[4,3-b][1,4]oxazin-3-one] had a pIC50 of 5.25. `O=C1CO[C@H]2CCN(C(=O)N3CCC(C#Cc4ccccc4Cl)CC3)C[C@H]2N1` [Example 125, (+)-(4aR,8aS)-6-[4-[2-(2-Chlorophenyl)ethynyl]piperidine-1-carbonyl]-4,4a,5,7,8,8a-hexahydropyrido[4,3-b][1,4]oxazin-3-one] showed a pIC50 of 7.52. In the case of `CN(c1ccc(C(F)(F)F)cc1)C1CN(C(=O)N2CC[C@@H]3OCC(=O)N[C@@H]3C2)C1` (racemic) [Example 137, rac-(4aR,8aS)-6-[3-[N-methyl-4-(trifluoromethyl)anilino]azetidine-1-carbonyl]-4,4a,5,7,8,8a-hexahydropyrido[4,3-b][1,4]oxazin-3-one], the pIC50 was 5.96. On to `CN(CC1CN(C(=O)N2CC[C@@H]3OCC(=O)N[C@@H]3C2)C1)C(c1ccc(C(F)(F)F)cc1)C(F)(F)F` (stereo partly drawn) [Example 80, (4aR,8aS)-6-(3-((Methyl(2,2,2-trifluoro-1-(4-(trifluoromethyl)phenyl)ethyl)amino)methyl)azetidine-1-carbonyl)hexahydro-2H-pyrido[4,3-b][1,4]oxazin-3 (4H)-one], for which the pIC50 was 8.40. The same measure for `O=C1CO[C@H]2CCN(C(=O)N3CC(C[S+]([O-])c4ccc(C(F)(F)F)cc4Cl)C3)C[C@H]2N1` (single isomer, unassigned) [Example 155]: 5.70; for `O=C1CO[C@H]2CCN(C(=O)N3CCC(C#Cc4cccc(Cl)c4)CC3)C[C@H]2N1` [Example 129, (+)-(4aR,8aS)-6-[4-[2-(3-Chlorophenyl)ethynyl]piperidine-1-carbonyl]-4,4a,5,7,8,8a-hexahydropyrido[4,3-b][1,4]oxazin-3-one]: 6.99; for `O=C1CO[C@H]2CCN(C(=O)N3CC(C[S+]([O-])c4ccc(C(F)(F)F)cc4Cl)C3)C[C@H]2N1` (single isomer, unassigned) [Example 154]: 6.51. For `O=C1CO[C@H]2CCN(C(=O)N3CCC(C#Cc4ccc(Cl)cc4)CC3)C[C@H]2N1` [Example 130, (+)-(4aR,8aS)-6-[4-[2-(4-Chlorophenyl)ethynyl]piperidine-1-carbonyl]-4,4a,5,7,8,8a-hexahydropyrido[4,3-b][1,4]oxazin-3-one] the value was 7.09; for `O=C1CO[C@H]2CCN(C(=O)N3CCC(C#Cc4ncccc4Cl)CC3)C[C@H]2N1` [Example 127, (+)-(4aR,8aS)-6-[4-[2-(3-Chloropyridin-2-yl)ethynyl]piperidine-1-carbonyl]-4,4a,5,7,8,8a-hexahydropyrido[4,3-b][1,4]oxazin-3-one], 6.51; for `O=C1CO[C@H]2CCN(C(=O)N3CC(SCc4ccc(C(F)(F)F)cc4F)C3)C[C@H]2N1` [Example 156, (4aR,8aS)-6-[3-[[2-Fluoro-4-(trifluoromethyl)phenyl]methylsulfanyl]azetidine-1-carbonyl]-4,4a,5,7,8,8a-hexahydropyrido[4,3-b][1,4]oxazin-3-one], 8.15. `N#Cc1cccc(Cl)c1C#CC1CN(C(=O)N2CC[C@@H]3OCC(=O)N[C@@H]3C2)C1` [Example 176, 2-[2-[1-[(4aR,8aS)-3-oxo-4,4a,5,7,8,8a-Hexahydropyrido[4,3-b][1,4]oxazine-6-carbonyl]azetidin-3-yl]ethynyl]-3-chlorobenzonitrile] showed a pIC50 of 7.30. Against the preceding compound, the pIC50 is 0.85 log units lower. As to `O=C1CO[C@H]2CCN(C(=O)N3CC(NC(=O)c4ccc(F)cc4Cl)C3)C[C@H]2N1` [Example 78, 2-chloro-4-fluoro-N-(1-((4aR,8aS)-3-oxooctahydro-2H-pyrido[4,3-b][1,4]oxazine-6-carbonyl)azetidin-3-yl)benzamide], the pIC50 was 5.34.

Turning to `O=C1CO[C@H]2CCN(C(=O)N3CCC(O)(C#Cc4ccccc4Cl)CC3)C[C@H]2N1` [Example 132, (+)-(4aR,8aS)-6-[4-[2-(2-Chlorophenyl)ethynyl]-4-hydroxypiperidine-1-carbonyl]-4,4a,5,7,8,8a-hexahydropyrido[4,3-b][1,4]oxazin-3-one], the pIC50 was 6.05.

Compound `O=C1CO[C@H]2CCN(C(=O)N3CCC(C#Cc4ccc(F)cc4Cl)CC3)C[C@H]2N1` [Example 128, (+)-(4aR,8aS)-6-[4-[2-(2-Chloro-4-fluorophenyl)ethynyl]piperidine-1-carbonyl]-4,4a,5,7,8,8a-hexahydropyrido[4,3-b][1,4]oxazin-3-one] showed a pIC50 of 7.64. Compared with the last compound, the pIC50 is 1.59 log units higher. Turning to `O=C1CO[C@H]2CCN(C(=O)N3CC(C[S+]([O-])c4ccc(C(F)(F)F)cc4Cl)C3)C[C@H]2N1` (mixture of isomers) [Example 153, (4aR,8aS)-6-[3-[[2-Chloro-4-(trifluoromethyl)phenyl]sulfinylmethyl]azetidine-1-carbonyl]-4,4a,5,7,8,8a-hexahydropyrido[4,3-b][1,4]oxazin-3-one], the pIC50 was 6.50. In turn, `O=C1CO[C@H]2CCN(C(=O)N3CC(C#Cc4ccccc4Br)C3)C[C@H]2N1` [Example 171, (4aR,8aS)-6-[3-[2-(2-Bromophenyl)ethynyl]azetidine-1-carbonyl]-4,4a,5,7,8,8a-hexahydropyrido[4,3-b][1,4]oxazin-3-one] showed a pIC50 of 8.15. For the compound `O=C1CO[C@H]2CCN(C(=O)N3CC(C#Cc4ccc(OC(F)(F)F)cc4)C3)C[C@H]2N1` [Example 166, (4aR,8aS)-6-[3-[2-[4-(Trifluoromethoxy)phenyl]ethynyl]azetidine-1-carbonyl]-4,4a,5,7,8,8a-hexahydropyrido[4,3-b][1,4]oxazin-3-one], the pIC50 is 8.05. The compound `COCc1ccccc1C#CC1CN(C(=O)N2CC[C@@H]3OCC(=O)N[C@@H]3C2)C1` [Example 191, (4aR,8aS)-6-[3-[2-[2-(Methoxymethyl)phenyl]ethynyl]azetidine-1-carbonyl]-4,4a,5,7,8,8a-hexahydropyrido[4,3-b][1,4]oxazin-3-one] had a pIC50 of 7.09.

Compound `CN(C(=O)C1(c2cccc(C(F)(F)F)c2)CC1)C1CCN(C(=O)N2CC[C@@H]3OCC(=O)N[C@@H]3C2)CC1` [Example 82] gave a pIC50 of 6.46. This pIC50 is 0.63 log units lower than that of the compound before.

For `O=C1CO[C@H]2CCN(C(=O)N3CC(CNC(c4ccc(Cl)cc4Cl)C(F)(F)F)C3)C[C@H]2N1` (stereo partly drawn) [Example 69, (4aR,8aS)-6-(3-(((1-(2,4-Dichlorophenyl)-2,2,2-trifluoroethyl)amino)methyl)azetidine-1-carbonyl)hexahydro-2H-pyrido[4,3-b][1,4]oxazin-3(4H)-one], the pIC50 is 8.10.

Turning to `O=C1CO[C@H]2CCN(C(=O)N3CC(C#Cc4c(F)cccc4Cl)C3)C[C@H]2N1` [Example 161, (4aR,8aS)-6-(3-((2-Chloro-6-fluorophenyl)ethynyl)azetidine-1-carbonyl)hexahydro-2H-pyrido[4,3-b][1,4]oxazin-3(4H)-one], the pIC50 is 8.30. The same measure for `O=C1CO[C@H]2CCN(C(=O)N3CC(CSc4ccc(C(F)(F)F)cc4Cl)C3)C[C@H]2N1` [Example 148, (4aR,8aS)-6-[3-[[2-Chloro-4-(trifluoromethyl)phenyl]sulfanylmethyl]azetidine-1-carbonyl]-4,4a,5,7,8,8a-hexahydropyrido[4,3-b][1,4]oxazin-3-one]: 8.70. Consider `O=C1CO[C@H]2CCN(C(=O)N3CC(C#Cc4c(Cl)cccc4Cl)C3)C[C@H]2N1` [Example 157, (+)-(4aR,8aS)-6-(3-((2,6-Dichlorophenyl)ethynyl)azetidine-1-carbonyl)hexahydro-2H-pyrido[4,3-b][1,4]oxazin-3(4H)-one], for which the pIC50 was 8.30. This pIC50 is 0.40 log units lower than that of the compound before.
